The text below walks through data of patent publication US20250179103A1, “6-OXODECAHYDROPYRROLO[1,2-A][1,5]DIAZOCINE AND 6-OXODECAHYDRO-4H-PYRROLO[2,1-D][1,5]THIAZOCINE DERIVATIVES AS STAT3 AND STAT6 MODULATORS FOR THE TREATMENT OF CANCER AND INFLAMMATORY CONDITIONS” (Recludix Pharma, Inc., priority 2022, published 2025).

Each structure is given as a SMILES string. Where only a bound is given, the exact number is not on record here.

Assay [1] addresses T1, Recombinant STAT6 protein (STAT6(W123-T658)) (Homo sapiens, UniProt P42226).
T1 construct: Recombinant STAT6 protein (STAT6(W123-T658))
T1 sequence (P42226 123-658): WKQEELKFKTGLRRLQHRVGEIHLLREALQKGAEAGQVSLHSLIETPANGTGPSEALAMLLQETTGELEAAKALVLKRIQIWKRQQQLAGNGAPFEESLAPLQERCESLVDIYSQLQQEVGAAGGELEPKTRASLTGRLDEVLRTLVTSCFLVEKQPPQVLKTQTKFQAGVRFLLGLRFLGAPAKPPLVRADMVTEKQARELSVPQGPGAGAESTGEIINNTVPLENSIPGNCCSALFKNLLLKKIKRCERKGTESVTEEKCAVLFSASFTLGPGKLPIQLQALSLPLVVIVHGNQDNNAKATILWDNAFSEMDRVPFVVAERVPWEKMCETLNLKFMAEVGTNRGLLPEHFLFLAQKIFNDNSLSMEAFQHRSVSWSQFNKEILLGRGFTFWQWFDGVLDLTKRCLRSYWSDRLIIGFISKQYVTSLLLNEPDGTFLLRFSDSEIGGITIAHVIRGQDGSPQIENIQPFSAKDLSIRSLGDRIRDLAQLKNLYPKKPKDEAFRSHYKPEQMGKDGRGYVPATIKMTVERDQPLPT
In words: STAT6 Fluorescence Polarization (FP) Assay. Conditions: STAT6(W123-T658) 250 nM, probe 5-FAM-ApYKPFQDLI-NH2 2 nM, 45-minute incubation. It is filed as binding. The protocol:
STAT6 Fluorescence Polarization (FP) Assay
An FP assay was developed to determine IC50 values for test substances. Recombinant STAT6 protein (STAT6(W123-T658)) at 250 nM was combined with a fluorescently labeled, phosphotyrosine peptide probe (5-FAM-ApYKPFQDLI-NH2) at 2 nM in FP buffer (10 mM HEPES pH 7.4, 50 mM NaCl, 1 mM EDTA, 0.05% Tween 20.2 mM DTT). 50 μL of STAT6-probe mixture was added to serial diluted compounds in black, 96-well plates (Greiner BioOne 655076) to a final concentration of 1% DMSO. Reaction components were mixed, and FP was measured after 45-minute incubation at room temperature using a Tecan Spark multimode plate reader. FP signal (mP) was plotted against the log concentration of the test substances and IC50 values were calculated by nonlinear regression analysis using GraphPad Prism software. For STAT6 FP assay, A=≤300 nM; B=>300-3000 nM; C=>3-30 μM; and D=>30 μM.
Background: In fluorescence polarisation assays a small probe gives low polarisation when free and higher when bound to something large.

In assay [2] the target is T2, Recombinant STAT3 protein (STAT3(G127-I722)) (Homo sapiens, UniProt P40763).
T2 construct: Recombinant STAT3 protein (STAT3(G127-I722))
As to the kind of experiment: STAT3 Fluorescence Polarization (FP) Assay. Conditions: STAT3(G127-I722) 25 nM, probe 5-FAM-GpYLPQTV-NH2 2 nM, 45-minute incubation. It is filed as binding. The protocol: STAT3 Fluorescence Polarization (FP) Assay
An FP assay was developed to determine IC50 values for test substances. Recombinant STAT3 protein (STAT3(G127-I722)) at 25 nM was combined with a fluorescently labeled, phosphotyrosine peptide probe (5-FAM-GpYLPQTV-NH2) at 2 nM in FP buffer (10 mM HEPES pH 7.4, 50 mM NaCl, 1 mM EDTA, 0.05% Tween 20.2 mM DTT). 50 μL of STAT3-probe mixture was added to serial diluted compounds in black, 96-well plates (Greiner BioOne 655076) to a final concentration of 1% DMSO. Reaction components were mixed, and FP was measured after 45-minute incubation at room temperature using a Tecan Spark multimode plate reader. FP signal (mP) was plotted against the log concentration of the test substances and IC50 values were calculated by nonlinear regression analysis using GraphPad Prism software. For STAT3 FP assay, A=≤100 nM; B=>100-1000 nM; C=>1-10 μM; and D=>10 μM.

T2 sequence (P40763 127-722): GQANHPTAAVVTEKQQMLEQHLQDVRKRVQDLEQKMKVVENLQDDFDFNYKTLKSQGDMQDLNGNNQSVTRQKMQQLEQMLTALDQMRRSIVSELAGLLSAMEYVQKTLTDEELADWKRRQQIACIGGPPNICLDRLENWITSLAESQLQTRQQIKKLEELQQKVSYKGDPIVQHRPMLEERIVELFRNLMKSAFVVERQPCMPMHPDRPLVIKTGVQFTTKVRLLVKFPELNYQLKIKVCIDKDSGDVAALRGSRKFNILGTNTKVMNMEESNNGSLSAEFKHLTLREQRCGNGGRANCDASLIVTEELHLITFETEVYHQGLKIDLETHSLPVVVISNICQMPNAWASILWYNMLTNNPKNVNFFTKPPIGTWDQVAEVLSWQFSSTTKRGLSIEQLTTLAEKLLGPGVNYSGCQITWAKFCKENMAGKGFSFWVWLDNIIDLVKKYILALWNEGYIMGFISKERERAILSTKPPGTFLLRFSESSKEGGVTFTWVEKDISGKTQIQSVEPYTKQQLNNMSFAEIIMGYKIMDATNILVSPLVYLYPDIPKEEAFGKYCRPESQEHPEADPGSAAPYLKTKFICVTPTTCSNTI

Turning to `CC(=O)N1CC[C@H]2CC[C@@H](C(=O)N3CC[C@@H](c4ccccc4)[C@H](C#N)C3)N2C(=O)[C@@H](NC(=O)c2cc3cc(C(F)(F)P(=O)(O)O)ccc3s2)C1` (relative stereo) [Compound 154, ((2-(((5S,8S,10aR)-3-acetyl-8-((rel-trans)-3-cyano-4-phenylpiperidine-1-carbonyl)-6-oxodecahydropyrrolo[1,2-a][1,5]diazocin-5-yl)carbamoyl)benzo[b]thiophen-5-yl)difluoromethyl)phosphonic acid], the IC50 in assay [1] is 0.3 to 3 µM; in assay [2], 1 to 10 µM.
`CC(=O)N1CC[C@H]2CC[C@@H](C(=O)N3C[C@H](c4ccccc4)[C@@H](C#N)C3)N2C(=O)[C@@H](NC(=O)c2ccc3ccc(C(F)(F)P(=O)(O)O)cc3c2)C1` (relative stereo) [Compound 203, ((7-(((5S,8S,10aR)-3-acetyl-8-(rel-trans)-3-cyano-4-phenylpyrrolidine-1-carbonyl)-6-oxodecahydropyrrolo[1,2-a][1,5]diazocin-5-yl)carbamoyl)naphthalen-2-yl)difluoromethyl)phosphonic acid]: the half-maximal inhibitory concentration (IC50) in assay [1] is at most 0.3 µM; in assay [2], 1 to 10 µM.
As for `CC(=O)N1CC[C@H]2CC[C@@H](C(=O)N3C[C@@H](C#N)[C@@H]3c3ccccc3)N2C(=O)[C@@H](NC(=O)c2cc3cc(C(F)(F)P(=O)(O)O)ccc3s2)C1` (relative stereo) [Compound 204, ((2-(((5S,8S,10aR)-3-acetyl-8-((rel-trans)-3-cyano-2-phenylazetidine-1-carbonyl)-6-oxodecahydropyrrolo[1,2-a][1,5]diazocin-5-yl)carbamoyl)benzo[b]thiophen-5-yl)difluoromethyl)phosphonic acid], the IC50 is 0.3 to 3 µM in assay [1] and 0.1 to 1 µM in assay [2].
For `CC(=O)N1CC[C@H]2CC[C@@H](C(=O)N3C[C@H](C#N)C[C@@H]3c3ccccc3)N2C(=O)[C@@H](NC(=O)c2cc3cc(C(F)(F)P(=O)(O)O)ccc3s2)C1` (relative stereo) [Compound 205, ((2-(((5S,8S,10aR)-3-acetyl-8-((rel-cis)-4-cyano-2-phenylpyrrolidine-1-carbonyl)-6-oxodecahydropyrrolo[1,2-a][1,5]diazocin-5-yl)carbamoyl)benzo[b]thiophen-5-yl)difluoromethyl)phosphonic acid], in that order: 0.3 to 3 µM and 1 to 10 µM.
For `CC(=O)N1CC[C@H]2CC[C@@H](C(=O)N3C[C@H](C#N)C[C@H]3c3ccccc3)N2C(=O)[C@@H](NC(=O)c2cc3cc(C(F)(F)P(=O)(O)O)ccc3s2)C1` (relative stereo) [Compound 206, ((2-(((5S,8S,10aR)-3-acetyl-8-((rel-trans)-4-cyano-2-phenylpyrrolidine-1-carbonyl)-6-oxodecahydropyrrolo[1,2-a][1,5]diazocin-5-yl)carbamoyl)benzo[b]thiophen-5-yl)difluoromethyl)phosphonic acid], in that order: 0.3 to 3 µM and 1 to 10 µM.
Take `CC(=O)N1CC[C@H]2CC[C@@H](C(=O)N3CC[C@H](C#N)[C@H]3c3ccccc3)N2C(=O)[C@@H](NC(=O)c2cc3cc(C(F)(F)P(=O)(O)O)ccc3s2)C1` (relative stereo) [Compound 207, ((2-(((5S,8S,10aR)-3-acetyl-8-((rel-trans)-3-cyano-2-phenylpyrrolidine-1-carbonyl)-6-oxodecahydropyrrolo[1,2-a][1,5]diazocin-5-yl)carbamoyl)benzo[b]thiophen-5-yl)difluoromethyl)phosphonic acid]: the 50% inhibitory concentration (IC50) in assay [1] was in the range of 0.3 to 3 µM; in assay [2], 1 to 10 µM.
For `N#C[C@H]1CN(C(=O)[C@@H]2CC[C@@H]3CN(C(c4ccccc4)c4ccccc4)CC[C@H](NC(=O)c4ccc5ccc(C(F)(F)P(=O)(O)O)cc5c4)C(=O)N32)C[C@@H]1c1ccccc1` (relative stereo) [Compound 209, ((7-(((5S,8S,10aR)-2-benzhydryl-8-((rel-trans)-3-cyano-4-phenylpyrrolidine-1-carbonyl)-6-oxodecahydropyrrolo[1,2-a][1,4]diazocin-5-yl)carbamoyl)naphthalen-2-yl)difluoromethyl)phosphonic acid], in that order: 0.3 to 3 µM and 1 to 10 µM.
With `N#C[C@H]1CN(C(=O)[C@@H]2CC[C@@H]3CN(C(=O)OCc4ccccc4)CC[C@H](NC(=O)c4ccc5ccc(C(F)(F)P(=O)(O)O)cc5c4)C(=O)N32)C[C@@H]1c1ccccc1` (relative stereo) [Compound 213, ((7-(((5S,8S,10aR)-2-((benzyloxy)carbonyl)-8-((rel-trans)-3-cyano-4-phenylpyrrolidine-1-carbonyl)-6-oxodecahydropyrrolo[1,2-a][1,4]diazocin-5-yl)carbamoyl)naphthalen-2-yl)difluoromethyl)phosphonic acid], the half-maximal inhibitory concentration (IC50) is at most 0.3 µM in assay [1] and 1 to 10 µM in assay [2].
For `CCN1CC[C@H](NC(=O)c2ccc3ccc(C(F)(F)P(=O)(O)O)cc3c2)C(=O)N2[C@H](CC[C@H]2C(=O)N2C[C@H](c3ccccc3)[C@@H](C#N)C2)C1` (relative stereo) [Compound 227, ((7-(((5S,8S,10aR)-8-((rel-trans)-3-cyano-4-phenylpyrrolidine-1-carbonyl)-2-ethyl-6-oxodecahydropyrrolo[1,2-a][1,4]diazocin-5-yl)carbamoyl)naphthalen-2-yl)difluoromethyl)phosphonic acid], in that order: at most 0.3 µM and 1 to 10 µM.
Consider `N#C[C@H]1CN(C(=O)[C@@H]2CC[C@@H]3CN(C4CCC4)CC[C@H](NC(=O)c4ccc5ccc(C(F)(F)P(=O)(O)O)cc5c4)C(=O)N32)C[C@@H]1c1ccccc1` (relative stereo) [Compound 228, ((7-(((5S,8S,10aR)-8-((rel-trans)-3-cyano-4-phenylpyrrolidine-1-carbonyl)-2-cyclobutyl-6-oxodecahydropyrrolo[1,2-a][1,4]diazocin-5-yl)carbamoyl)naphthalen-2-yl)difluoromethyl)phosphonic acid], for which the IC50 is at most 0.3 µM in assay [1] and 1 to 10 µM in assay [2].
In the case of `Cc1ccc2[nH]nc(C(=O)N3CC[C@H](NC(=O)c4ccc5ccc(C(F)(F)P(=O)(O)O)cc5c4)C(=O)N4[C@H](CC[C@H]4C(=O)N4C[C@H](c5ccccc5)[C@@H](C#N)C4)C3)c2c1` (relative stereo) [Compound 233, ((7-(((5S,8S,10aR)-8-(rel-tran)-3-cyano-4-phenylpyrrolidine-1-carbonyl)-2-(5-methyl-1H-indazole-3-carbonyl)-6-oxodecahydropyrrolo[1,2-a][1,4]diazocin-5-yl)carbamoyl)naphthalen-2-yl)difluoromethyl)phosphonic acid], the IC50 in assay [1] is at most 0.3 µM; in assay [2], 1 to 10 µM.
For `Cc1ccc2[nH]nc(C(=O)N3CC[C@H]4CC[C@@H](C(=O)N5C[C@H](c6ccccc6)[C@@H](C#N)C5)N4C(=O)[C@@H](NC(=O)c4ccc5ccc(C(F)(F)P(=O)(O)O)cc5c4)C3)c2c1` (relative stereo) [Compound 236, ((7-(((5S,8S,10aR)-8-((rel-trans)-3-cyano-4-phenylpyrrolidine-1-carbonyl)-3-(5-methyl-1H-indazole-3-carbonyl)-6-oxodecahydropyrrolo[1,2-a][1,5]diazocin-5-yl)carbamoyl)naphthalen-2-yl)difluoromethyl)phosphonic acid], in that order: at most 0.3 µM and 0.1 to 1 µM.

As a reminder, the IC50 is the concentration needed to halve the response being measured.
